# Measurements reported in patent US11197933B2, “Polysubunit opioid prodrugs resistant to overdose and abuse” (Elysium Therapeutics, Inc., priority 2017, dated 2021).
# How the values were obtained:
# [1] = after oral doses; cited from earlier work
# [2] = in man; cited from earlier work
# trypsin [3] = biological target: T1, trypsin (Bos taurus, UniProt P00760); test: Inhibition of trypsin-catalyzed hydrolysis of BANA (percent BANA remaining vs. time); assay type: biochemical; conditions: for Ability to inhibit trypsin (result in words): increasing concentrations, BANA substrate
# T1 construct: gene PRSS1
# T1 sequence (P00760 24-246): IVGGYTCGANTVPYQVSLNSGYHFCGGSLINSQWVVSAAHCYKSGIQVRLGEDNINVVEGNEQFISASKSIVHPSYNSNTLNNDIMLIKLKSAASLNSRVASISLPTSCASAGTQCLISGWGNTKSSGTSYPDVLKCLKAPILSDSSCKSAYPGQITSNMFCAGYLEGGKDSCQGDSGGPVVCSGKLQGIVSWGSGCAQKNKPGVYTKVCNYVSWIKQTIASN
# Protocol: This example describes in vitro experiments with a compound of the disclosure to provide a mechanism of overdose protection.
# The effect of increasing concentrations of compounds II-D-11, II-D-23, II-D-71c and II-D-71b on the rate and extent of the trypsin-catalyzed hydrolysis of a commercially available trypsin substrate Nα-Benzoyl-L-arginine 4-nitroanilide hydrochloride (BANA) was evaluated in the presence of trypsin (2,000 BAEE activity) in a pH 7.4 phosphate buffer at 37° C. in vitro. Both buffer solution alone (i.e. no trypsin) and trypsin containing buffer solution (i.e. no test compounds) controls were run contemporaneously.
# [4] = Rate of release of opioid agonist (key differentiating attributes, Table 5); conditions: for Rate of Release of Opioid Against: in words (Fast/Slow); for half-life: read-out: Rate of Release of Opioid Against: T1/2
# Description: (§1) As mentioned previously, a wide range of targeted oral pharmacokinetic profiles can be achieved by administering pharmaceutical compositions containing specific combinations of different polysubunit molecules to subjects. For example, the different polysubunit molecules contained in the composition may differ with regard to (i) the specific opioid agonists delivered, (ii) the rates at which the opioid agonist is delivered in vivo (i.e. to modify the oral pharmacokinetic profile of the delivered opioid), and (iii) the combined inhibitory potency of the GI enzyme inhibiting subunits [i.e. to modify the overdose protection profile and/or the prescribed dose strengths of the delivered opioid agonist(s)]. Table 5 below provides non-limiting examples of compounds of the invention with their key differentiating attributes. Table 6 discusses scenarios and rationales for using the compounds presented in Table 5 in combination with each other, in useful pharmaceutical formulations of the invention.
# trypsin [5] = biological target: T1, trypsin; test: Trypsin inhibitory potency (key differentiating attributes, Table 5); assay type: biochemical
# Description: as §1
smiles,measurement,setting,value
"O=C1CC[C@@]2(O)[C@H]3Cc4ccc(O)c5c4[C@@]2(CCN3CC2CC2)[C@H]1O5 [naltrexone, Naltrexone]",Duration of action,[1],~24 h
same,Oral bioavailability,[2],5-40%
COc1ccc2c3c1O[C@H]1C(OC(=O)N4CCC(C(=O)NCCCC[C@H](NC(=O)OCc5ccccc5)C(=O)NCCOc5ccc(C(=O)Oc6cccc(NC(=N)N)c6)cc5)CC4CNC(=O)[C@@H](CCCNC(=N)N)NC(=O)CNC(C)=O)=CC[C@H]4[C@@H](C2)N(C)CC[C@]314 (stereo partly drawn) [II-D-71b],Percent BANA remaining,"trypsin [3]; compound 10 uM, 2 minutes, trypsin 2,000 BAEE activity, pH 7.4 phosphate buffer, 37° C.",87.9%
same,Percent BANA remaining,"trypsin [3]; compound 10 uM, 13 minutes, trypsin 2,000 BAEE activity, pH 7.4 phosphate buffer, 37° C.",0%
same,Percent BANA remaining,"trypsin [3]; compound 10 uM, 24 minutes, trypsin 2,000 BAEE activity, pH 7.4 phosphate buffer, 37° C.",0%
same,Percent BANA remaining,"trypsin [3]; compound 10 uM, 35 minutes, trypsin 2,000 BAEE activity, pH 7.4 phosphate buffer, 37° C.",0%
same,Percent BANA remaining,"trypsin [3]; compound 10 uM, 46 minutes, trypsin 2,000 BAEE activity, pH 7.4 phosphate buffer, 37° C.",0%
same,Percent BANA remaining,"trypsin [3]; compound 10 uM, 57 minutes, trypsin 2,000 BAEE activity, pH 7.4 phosphate buffer, 37° C.",0%
same,Percent BANA remaining,"trypsin [3]; compound 10 uM, 68 minutes, trypsin 2,000 BAEE activity, pH 7.4 phosphate buffer, 37° C.",0%
same,Percent BANA remaining,"trypsin [3]; compound 100 uM, 2 minutes, trypsin 2,000 BAEE activity, pH 7.4 phosphate buffer, 37° C.",93.1%
same,Percent BANA remaining,"trypsin [3]; compound 100 uM, 13 minutes, trypsin 2,000 BAEE activity, pH 7.4 phosphate buffer, 37° C.",15.1%
same,Percent BANA remaining,"trypsin [3]; compound 100 uM, 24 minutes, trypsin 2,000 BAEE activity, pH 7.4 phosphate buffer, 37° C.",2.4%
same,Percent BANA remaining,"trypsin [3]; compound 100 uM, 35 minutes, trypsin 2,000 BAEE activity, pH 7.4 phosphate buffer, 37° C.",2.3%
same,Percent BANA remaining,"trypsin [3]; compound 100 uM, 46 minutes, trypsin 2,000 BAEE activity, pH 7.4 phosphate buffer, 37° C.",1.4%
same,Percent BANA remaining,"trypsin [3]; compound 100 uM, 57 minutes, trypsin 2,000 BAEE activity, pH 7.4 phosphate buffer, 37° C.",0%
same,Percent BANA remaining,"trypsin [3]; compound 100 uM, 68 minutes, trypsin 2,000 BAEE activity, pH 7.4 phosphate buffer, 37° C.",0%
same,Percent BANA remaining,"trypsin [3]; compound 1 mM, 2 minutes, trypsin 2,000 BAEE activity, pH 7.4 phosphate buffer, 37° C.",100%
same,Percent BANA remaining,"trypsin [3]; compound 1 mM, 13 minutes, trypsin 2,000 BAEE activity, pH 7.4 phosphate buffer, 37° C.",76.1%
same,Percent BANA remaining,"trypsin [3]; compound 1 mM, 24 minutes, trypsin 2,000 BAEE activity, pH 7.4 phosphate buffer, 37° C.",66.6%
same,Percent BANA remaining,"trypsin [3]; compound 1 mM, 35 minutes, trypsin 2,000 BAEE activity, pH 7.4 phosphate buffer, 37° C.",59.6%
same,Percent BANA remaining,"trypsin [3]; compound 1 mM, 46 minutes, trypsin 2,000 BAEE activity, pH 7.4 phosphate buffer, 37° C.",56.3%
same,Percent BANA remaining,"trypsin [3]; compound 1 mM, 57 minutes, trypsin 2,000 BAEE activity, pH 7.4 phosphate buffer, 37° C.",55.7%
same,Percent BANA remaining,"trypsin [3]; compound 1 mM, 68 minutes, trypsin 2,000 BAEE activity, pH 7.4 phosphate buffer, 37° C.",53.7%
same,Ability to inhibit trypsin (result in words),"trypsin [3]; pH 7.4, 37° C.",progressively inhibit trypsin in a concentration dependent manner
same,Rate of Release of Opioid Against,[4],Fast
same,half-life,[4],~10 min
same,Trypsin Inhibitory Potency,trypsin [5],Low
C[C@H]1[C@H]2Cc3ccc(O)cc3[C@]1(C)CCN2CC1CC1 [cyclazocine],Duration of action,[1],~24 h
COc1ccc2c3c1O[C@H]1C(OC(=O)N4CCC(C(=O)NCCCC[C@H](NC(=O)OCc5ccccc5)C(=O)NCCOc5ccc(C(=O)Oc6ccc(NC(=N)N)cc6)cc5)CC4CNC(=O)[C@@H](CCCNC(=N)N)NC(=O)CNC(C)=O)=CC[C@H]4[C@@H](C2)N(C)CC[C@]314 (stereo partly drawn) [II-D-71c],Percent BANA remaining,"trypsin [3]; 1 uM compound, 2 minutes, pH 7.4, 37° C.",81.5%
same,Percent BANA remaining,"trypsin [3]; 1 uM compound, 13 minutes, pH 7.4, 37° C.",0%
same,Percent BANA remaining,"trypsin [3]; 1 uM compound, 24 minutes, pH 7.4, 37° C.",0%
same,Percent BANA remaining,"trypsin [3]; 1 uM compound, 35 minutes, pH 7.4, 37° C.",0%
same,Percent BANA remaining,"trypsin [3]; 1 uM compound, 46 minutes, pH 7.4, 37° C.",0%
same,Percent BANA remaining,"trypsin [3]; 1 uM compound, 57 minutes, pH 7.4, 37° C.",0%
same,Percent BANA remaining,"trypsin [3]; 1 uM compound, 68 minutes, pH 7.4, 37° C.",0%
same,Percent BANA remaining,"trypsin [3]; 10 uM compound, 2 minutes, pH 7.4, 37° C.",76.5%
same,Percent BANA remaining,"trypsin [3]; 10 uM compound, 13 minutes, pH 7.4, 37° C.",58.5%
same,Percent BANA remaining,"trypsin [3]; 10 uM compound, 24 minutes, pH 7.4, 37° C.",42.5%
same,Percent BANA remaining,"trypsin [3]; 10 uM compound, 35 minutes, pH 7.4, 37° C.",26.0%
same,Percent BANA remaining,"trypsin [3]; 10 uM compound, 46 minutes, pH 7.4, 37° C.",13.0%
same,Percent BANA remaining,"trypsin [3]; 10 uM compound, 57 minutes, pH 7.4, 37° C.",4.7%
same,Percent BANA remaining,"trypsin [3]; 10 uM compound, 68 minutes, pH 7.4, 37° C.",0%
same,Percent BANA remaining,"trypsin [3]; 100 uM compound, 2 minutes, pH 7.4, 37° C.",100%
same,Percent BANA remaining,"trypsin [3]; 100 uM compound, 13 minutes, pH 7.4, 37° C.",100%
same,Percent BANA remaining,"trypsin [3]; 100 uM compound, 24 minutes, pH 7.4, 37° C.",99%
same,Percent BANA remaining,"trypsin [3]; 100 uM compound, 35 minutes, pH 7.4, 37° C.",100%
same,Percent BANA remaining,"trypsin [3]; 100 uM compound, 46 minutes, pH 7.4, 37° C.",100%
same,Percent BANA remaining,"trypsin [3]; 100 uM compound, 57 minutes, pH 7.4, 37° C.",100%
same,Percent BANA remaining,"trypsin [3]; 100 uM compound, 68 minutes, pH 7.4, 37° C.",100%
same,Percent BANA remaining,"trypsin [3]; 1 mM compound, 2 minutes, pH 7.4, 37° C.",100%
same,Percent BANA remaining,"trypsin [3]; 1 mM compound, 13 minutes, pH 7.4, 37° C.",100%
same,Percent BANA remaining,"trypsin [3]; 1 mM compound, 24 minutes, pH 7.4, 37° C.",99%
same,Percent BANA remaining,"trypsin [3]; 1 mM compound, 35 minutes, pH 7.4, 37° C.",100%
same,Percent BANA remaining,"trypsin [3]; 1 mM compound, 46 minutes, pH 7.4, 37° C.",100%
same,Percent BANA remaining,"trypsin [3]; 1 mM compound, 57 minutes, pH 7.4, 37° C.",100%
same,Percent BANA remaining,"trypsin [3]; 1 mM compound, 68 minutes, pH 7.4, 37° C.",100%
same,Ability to inhibit trypsin (result in words),"trypsin [3]; pH 7.4, 37° C.",progressively inhibit trypsin in a concentration dependent manner
same,Rate of Release of Opioid Against,[4],Fast
same,half-life,[4],~10 min
same,Trypsin Inhibitory Potency,trypsin [5],High
